One block for each molecule: values may come before it.
Columns and labels:
[1] = test system: ON1 (adenosine aptamer) (DNA, aptamer) ACCTGGGGGAGTATTGCGGAGGAAGGT; assay: luminescence displacement assay (complex 1/ON1/ON2); conditions: 100 mM NaCl, 10 mM MgCl2, 75 mM K+, 20 mM Tris-HCl pH 7.4, 37 °C
[2] = test system: F21T (DNA, G4) GGGTTAGGGTTAGGGTTAGGG; assay: FRET melting; conditions: 0.2 μM DNA; 3 μM compound
[3] = test system: F10T (DNA, hairpin, HEG linker between nt 8 and 9) TATAGCTATATAGCTATAT; assay: FRET melting; conditions: 0.2 μM DNA; 3 μM compound
[4] = test system: CCR5-DEL (DNA, single strand) CTCATTTTCCATACATTAAAGATAGTCAT; assay: luminescence enhancement; conditions: 20 mM Tris-HCl pH 7.4; 1 μM compound, 5 μM DNA
[5] = test system: ON2m (DNA, single strand) AAGTTTCCGACTCCCCCAGGTGCCTTTGAA; assay: luminescence enhancement; conditions: ON2m used in place of ON2 in adenosine assay; 80 μM adenosine
[6] = test system: 5'-side loop, 5'-G3TnG3T3G3T3G3-3', n = 1 (DNA, G4) GGGTGGGTTTGGGTTTGGG; assay: luminescence enhancement; conditions: 1 μM compound; 2.7-fold enhancement
[7] = test system: 5'-side loop, 5'-G3TnG3T3G3T3G3-3', n = 15 (DNA, G4) GGGTTTTTTTTTTTTTTTGGGTTTGGGTTTGGG; assay: luminescence enhancement; conditions: 1 μM compound; 6.9-fold enhancement
[8] = test system: central loop, 5'-G3T3G3TnG3T3G3-3', n = 1 (DNA, G4) GGGTTTGGGTGGGTTTGGG; assay: luminescence enhancement; conditions: 1 μM compound; 2.4-fold enhancement
[9] = test system: central loop, 5'-G3T3G3TnG3T3G3-3', n = 15 (DNA, G4) GGGTTTGGGTTTTTTTTTTTTTTTGGGTTTGGG; assay: luminescence enhancement; conditions: 1 μM compound; 8.3-fold enhancement
[10] = test system: 3'-side loop, 5'-G3T3G3T3G3TnG3-3', n = 1 (DNA, G4) GGGTTTGGGTTTGGGTGGG; assay: luminescence enhancement; conditions: 1 μM compound; 2.3-fold enhancement
[11] = test system: 3'-side loop, 5'-G3T3G3T3G3TnG3-3', n = 15 (DNA, G4) GGGTTTGGGTTTGGGTTTTTTTTTTTTTTTGGG; assay: luminescence enhancement; conditions: 1 μM compound; 7.2-fold enhancement
[12] = test system: ON2 (DNA, G4) GGGTTTGGGACTCCCCCAGGTGGGTTTGGG; assay: G4-FID (thiazole orange displacement); conditions: Tris-HCl buffer; thiazole orange displaced; 0.25 μM DNA
[13] = test system: ds17 (DNA, duplex) CCAGTTCGTAGTAACCC/GGGTTACTACGAACTGG; assay: G4-FID (thiazole orange displacement); conditions: Tris-HCl buffer; thiazole orange displaced; 0.25 μM DNA; under 50% displaced at highest concentration tested
[14] = ON2 capture strand, 200 μM highest tested

SMILES: Nc1ncnc2c1ncn2[C@@H]1O[C@H](CO)[C@@H](O)[C@H]1O
binding ([1]; ON2 capture strand displaced): yes

ΔTm [2]: ~ 7.0 °C | ΔTm [3]: 3.0 °C | binding [4]: weak | binding [5]: weak | binding [6]: yes | binding [7]: yes | binding [8]: yes | binding [9]: yes | binding [10]: yes | binding [11]: yes | G4DC50 [12]: 7.0 µM | binding [13]: weak
SMILES: Cc1cccnc1-c1[c-]cccc1.Cc1cccnc1-c1[c-]cccc1.[Ir+3].c1ccc(-c2ccc3ccc4ccc(-c5ccccc5)nc4c3n2)cc1

SMILES: Nc1ccn([C@@H]2O[C@H](CO)[C@@H](O)[C@H]2O)c(=O)n1
binding [1, 14]: no

SMILES: O=c1ccn([C@@H]2O[C@H](CO)[C@@H](O)[C@H]2O)c(=O)[nH]1
binding [1, 14]: no

SMILES: Nc1nc2c(ncn2[C@@H]2O[C@H](CO)[C@@H](O)[C@H]2O)c(=O)[nH]1
binding [1, 14]: no

Source: PMC4726048 (2016)
